Reference: patent US11427548B2 (Arvinas Operations, Inc., priority 2015, dated 2022)
Where two headings read alike, the source gives them in different places.

Biological target: T1, Androgen Receptor (Homo sapiens, UniProt P10275)
T1 construct: endogenous in cells; host or cells: VCaP cells
T1 sequence (P10275 1-920): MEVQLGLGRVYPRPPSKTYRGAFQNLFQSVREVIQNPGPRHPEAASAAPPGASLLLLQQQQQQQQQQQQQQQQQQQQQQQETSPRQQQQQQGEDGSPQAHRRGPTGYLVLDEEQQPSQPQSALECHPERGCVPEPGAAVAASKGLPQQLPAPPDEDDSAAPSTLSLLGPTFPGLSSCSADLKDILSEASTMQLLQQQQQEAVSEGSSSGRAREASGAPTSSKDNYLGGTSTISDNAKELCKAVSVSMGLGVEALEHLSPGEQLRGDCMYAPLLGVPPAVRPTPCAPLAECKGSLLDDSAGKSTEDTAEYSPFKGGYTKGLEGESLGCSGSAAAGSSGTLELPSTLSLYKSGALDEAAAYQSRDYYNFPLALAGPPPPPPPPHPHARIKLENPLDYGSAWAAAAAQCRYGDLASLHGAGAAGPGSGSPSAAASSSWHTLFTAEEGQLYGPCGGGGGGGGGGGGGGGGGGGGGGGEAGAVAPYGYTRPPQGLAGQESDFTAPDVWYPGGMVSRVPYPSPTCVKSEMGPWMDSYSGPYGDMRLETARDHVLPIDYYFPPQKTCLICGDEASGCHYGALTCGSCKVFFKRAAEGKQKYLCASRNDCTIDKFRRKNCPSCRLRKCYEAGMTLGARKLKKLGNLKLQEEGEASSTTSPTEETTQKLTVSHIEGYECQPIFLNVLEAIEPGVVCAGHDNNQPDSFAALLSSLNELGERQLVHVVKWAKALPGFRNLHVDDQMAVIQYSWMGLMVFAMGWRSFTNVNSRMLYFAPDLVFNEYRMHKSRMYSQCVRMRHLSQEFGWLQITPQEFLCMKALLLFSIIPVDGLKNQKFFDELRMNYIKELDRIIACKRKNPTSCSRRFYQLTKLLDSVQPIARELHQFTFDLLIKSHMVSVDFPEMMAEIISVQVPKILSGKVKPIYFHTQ
Experiment: Androgen Receptor ELISA assay (PathScan AR ELISA) in VCaP cells: AR degradation, Dmax and DC50
Type: cell-based
How it was run: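 After 24 h exposure of VCaP cells (charcoal-stripped serum, 0.1 nM R1881 agonist, 0.1% DMSO) to seven half-log compound concentrations, residual AR in lysates was measured by PathScan ELISA (TMB absorbance, 450 nm). Cells were plated at 30,000/well and grown at least 3 days beforehand.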

[1] = VCaP cells; Table 35; read-out: VCaP DC50
[2] = VCaP, VCaP cells; Table 35; read-out: VCaP Dmax (%)
[3] = VCaP cells; Table 36; read-out: VCaP DC50
[4] = VCaP, VCaP cells; Table 36; read-out: VCaP Dmax (%)
[5] = VCaP, highest percentage of Androgen Receptor degradation observed, VCaP cells (Table 32); read-out: VCaP Dmax (%)
[6] = concentration that caused 50% Androgen Receptor degradation, VCaP cells (Table 32); read-out: VCaP DC50
[7] = read-out: VCaP DC50; VCaP cells; Table 35

Question: What does the source list for `CC(C)(C)[C@H](NC(=O)COCCCCCNc1ccc(C(=O)N[C@H]2C(C)(C)[C@H](Oc3ccc(C#N)c(Cl)c3)C2(C)C)cc1)C(=O)N1C[C@H](O)C[C@H]1C(=O)NCc1ccc(C#N)nc1` [Example 523]?
Answer: DC50 [1]: < 50 nM; Dmax [2]: 51 to 70%

Question: How did the Dmax (VCaP, read-out: VCaP Dmax (%)) turn out when `CCOC(=O)c1ncsc1-c1ccc(CNC(=O)[C@@H]2C[C@@H](O)CN2C(=O)[C@@H](NC(=O)COCCCCOc2ccc(-c3ccc(N4C(=S)N(c5ccc(C#N)c(C(F)(F)F)c5)C(=O)C4(C)C)cc3)cc2)C(C)(C)C)cc1` [Example 414] was run?
Answer: < 25%

Question: What about the DC50 (read-out: VCaP DC50; VCaP cells; Table 34) of the same molecule?
Answer: < 50 nM

Question: With `Cc1ncsc1-c1ccc([C@H](CO)NC(=O)[C@@H]2C[C@@H](O)CN2C(=O)[C@@H](NC(=O)COCCN2CCN(c3ccc(C(=O)N[C@H]4C(C)(C)[C@H](Oc5ccc(C#N)c(Cl)c5)C4(C)C)cn3)CC2)C(C)(C)C)cc1` [Example 812, N-((1r,3r)-3-(3-chloro-4-cyanophenoxy)-2,2,4,4-tetramethylcyclobutyl)-6-(4-(2-(2-(((S)-1-((2S, 4R)-4-hydroxy-2-(((R)-2-hydroxy-1-(4-(4-methylthiazol-5-yl)phenyl)ethyl)carbamoyl)pyrrolidin-1-yl)-3,3-dimethyl-1-oxobutan-2-yl)amino)-2-oxoethoxy)ethyl)piperazin-1-yl) nicotinamide] as the molecule, how does the DC50 [3] read?
Answer: < 50 nM

Question: And the Dmax [4]?
Answer: > 71%

Question: With `Cc1ncoc1-c1ccc(CNC(=O)[C@@H]2C[C@@H](O)CN2C(=O)[C@@H](NC(=O)COCCOc2ccc(Oc3ccc(C(=O)N[C@H]4C(C)(C)[C@H](Oc5ccc(C#N)c(Cl)c5)C4(C)C)cc3)cc2)C(C)(C)C)cc1` [Example 186, (2S,4R)-1-[(2S)-3,3-dimethyl-2-(2-{2-[4-(4-{[trans-3-(3-chloro-4-cyanophenoxy)-2,2,4,4-tetramethylcyclobutyl]carbamoyl}phenoxy)phenoxy]ethoxy}acetamido)butanoyl]-4-hydroxy-N-{[4-(4-methyl-1,3-oxazol-5-yl)phenyl]methyl}pyrrolidine-2-carboxamide] as the molecule, how does the Dmax [5] read?
Answer: > 71%

Question: What about the DC50 [6] of the same molecule?
Answer: < 50 nM

Question: `Cc1ncsc1-c1ccc([C@H](C)NC(=O)[C@@H]2C[C@@H](O)CN2C(=O)[C@@H](NC(=O)COc2ccc(OC3CCN(c4ccc(N5C(=S)N(c6ccc(C#N)c(C(F)(F)F)c6)C(=O)C5(C)C)cn4)CC3)nc2)C(C)(C)C)cc1` [Example 429] was tested. Which Dmax (VCaP, read-out: VCaP Dmax (%)) did it give?
Answer: 26 to 50%

Question: What about the DC50 [7] of the same molecule?
Answer: > 501 nM

Question: With `Cc1ncsc1-c1ccc(CNC(=O)[C@@H]2C[C@@H](O)CN2C(=O)[C@@H](NC(=O)COCCCCOc2ccc(-c3ccc(N4C(=S)N(c5ccc(C#N)c(C(F)(F)F)c5)C(=O)C4(C)C)cc3)cc2)C(C)(C)C(=O)O)cc1` [Example 546] as the molecule, how does the DC50 [7] read?
Answer: > 501 nM

Question: How did the DC50 [3] turn out when `C/C(=N\OCCN1CCN(CC(=O)N[C@H](C(=O)N2C[C@H](O)C[C@H]2C(=O)N[C@@H](C)c2ccc(-c3scnc3C)cc2)C(C)(C)C)CC1)c1cc(C(=O)N[C@@H](C)Cn2ccc(-c3ccc(C#N)c(Cl)c3)n2)n[nH]1` [Example 864, N-((S)-1-(3-(3-Chloro-4-cyanophenyl)-1H-pyrazol-1-yl)propan-2-yl)-5-((E)-1-((2-(4-(2-(((S)-1-((2S,4R)-4-hydroxy-2-(((S)-1-(4-(4-methylthiazol-5-yl)phenyl)ethyl)carbamoyl)pyrrolidin-1-yl)-3,3-dimethyl-1-oxobutan-2-yl)amino)-2-oxoethyl)piperazin-1-yl)ethoxy)imino)ethyl)-1H-pyrazole-3-carboxamide] was run?
Answer: < 50 nM

Question: What about the Dmax [4] of the same molecule?
Answer: < 25%

Question: What does the source list for `Cc1ncsc1-c1ccc([C@H](C)NC(=O)C2C[C@@H](O)CN2C(=O)C(NC(=O)CN2CCN(CCN3CCN(c4ccc(C(=O)N[C@H]5C(C)(C)[C@H](Oc6ccc(C#N)c(Cl)c6)C5(C)C)cn4)CC3)CC2)C(C)(C)C)cc1` (stereo partly drawn) [Example 789, N-((1r,3r)-3-(3-chloro-4-cyanophenoxy)-2,2,4,4-tetramethylcyclobutyl)-6-(4-(2-(4-(2-(((S)-1-((2S,4R)-4-hydroxy-2-(((S)-1-(4-(4-methylthiazol-5-yl)phenyl)ethyl)carbamoyl)pyrrolidin-1-yl)-3,3-dimethyl-1-oxobutan-2-yl)amino)-2-oxoethyl)piperazin-1-yl)ethyl)piperazin-1-yl)nicotinamide]?
Answer: DC50 [3]: < 50 nM; Dmax [4]: > 71%

Question: `CC(C)(C)[C@H](NC(=O)COCCCCCOc1ccc(C(=O)N[C@H]2C(C)(C)[C@H](Oc3ccc(C#N)c(Cl)c3)C2(C)C)cc1)C(=O)N1C[C@H](O)C[C@H]1C(=O)O` [Example 509] was tested. Which DC50 [1] did it give?
Answer: 51 to 500 nM

Question: What about the Dmax [2] of the same molecule?
Answer: 26 to 50%

Question: `Cc1ncsc1-c1ccc([C@H](C)NC(=O)[C@@H]2C[C@@H](O)CN2C(=O)[C@@H](C(C)C)N2Cc3ccc(N4CCN(CCCc5ccc(C(=O)N[C@H]6C(C)(C)[C@H](Oc7ccc(C#N)c(Cl)c7)C6(C)C)cc5)CC4)cc3C2=O)cc1` [Example 777, (2S,4R)-1-((R)-2-(6-(4-(3-(4-(((1r,3r)-3-(3-chloro-4-cyanophenoxy)-2,2,4,4-tetramethylcyclobutyl)carbamoyl)phenyl)propyl)piperazin-1-yl)-1-oxoisoindolin-2-yl)-3-methylbutanoyl)-4-hydroxy-N-((S)-1-(4-(4-methylthiazol-5-yl)phenyl)ethyl)pyrrolidine-2-carboxamide] was tested. Which DC50 [3] did it give?
Answer: > 501 nM

Question: And the Dmax (VCaP, read-out: VCaP Dmax (%))?
Answer: < 25%

Question: For `Cc1ncsc1-c1ccc(CNC(=O)[C@@H]2C[C@@H](O)CN2C(=O)[C@@H](NC(=O)COCCCOCCCCOc2ccc(N3C(=S)N(c4cnc(C#N)c(Cl)c4)C(=O)C3(C)C)cc2)C(C)(C)C)cc1` [Example 37, (2S,4R)-1-[(2S)-2-{2-[3-(4-{4-[3-(5-chloro-6-cyanopyridin-3-yl)-5,5-dimethyl-4-oxo-2-sulfanylideneimidazolidin-1-yl]phenoxy}butoxy)propoxy]acetamido}-3,3-dimethylbutanoyl]-4-hydroxy-N-{[4-(4-methyl-1,3-thiazol-5-yl)phenyl]methyl}pyrrolidine-2-carboxamide], which Dmax (VCaP, highest percentage of Androgen Receptor degradation observed, VCaP cells; read-out: VCaP Dmax (%)) is on record?
Answer: > 71%

Question: What about the DC50 (concentration that caused 50% Androgen Receptor degradation, VCaP cells; read-out: VCaP DC50) of the same molecule?
Answer: < 50 nM

Question: `Cc1ncsc1-c1ccc([C@H](C)NC(=O)[C@@H]2CC3CN2C(=O)C(C(C)(C)C)NC(=O)COCCCOCCC(CCOc2ccc(N4C(=S)N(c5ccc(C#N)c(C(F)(F)F)c5)C(=O)C4(C)C)cc2)OC(=O)CC/C=C/CCC(=O)O3)cc1` (stereo partly drawn) [Example 619, (3S,25R,27S,E)-3-(tert-butyl)-14-(2-(4-(3-(4-cyano-3-(trifluoromethyl)phenyl)-5,5-dimethyl-4-oxo-2-thioxoimidazolidin-1-yl)phenoxy)ethyl)-N-((S)-1-(4-(4-methylthiazol-5-yl)phenyl)ethyl)-2,5,16,23-tetraoxo-7,11,15,24-tetraoxa-1,4-diazabicyclo[23.2.1]oct-acos-19-ene-27-carboxamide] was tested. Which Dmax (VCaP, read-out: VCaP Dmax (%)) did it give?
Answer: < 25%

Question: What about the DC50 (read-out: VCaP DC50; VCaP cells; Table 36) of the same molecule?
Answer: > 501 nM

Question: `Cc1ncsc1-c1ccc([C@H](C)NC(=O)[C@@H]2C[C@@H](O)CN2C(=O)C(NC(=O)CCCCCc2ccc(C(=O)N[C@H]3C(C)(C)[C@H](Oc4ccc(C#N)c(Cl)c4)C3(C)C)cc2)C(C)(C)C)cc1` (stereo partly drawn) [Example 748, (2S,4R)-1-((S)-2-(6-(4-(((1r,3r)-3-(3-chloro-4-cyanophenoxy)-2,2,4,4-tetramethylcyclobutyl)carbamoyl)phenyl)hexan-amido)-3,3-dimethylbutanoyl)-4-hydroxy-N-((S)-1-(4-(4-methylthiazol-5-yl)phenyl)ethyl)pyrrolidine-2-carboxamide] was tested. Which DC50 [3] did it give?
Answer: < 50 nM

Question: What about the Dmax [4] of the same molecule?
Answer: 26 to 50%

Question: With `Cc1ncsc1-c1ccc([C@H](C)NC(=O)[C@@H]2C[C@@H](O)CN2C(=O)[C@H](c2cc(CCCN3CCN(c4ccc(C(=O)N[C@H]5C(C)(C)[C@H](Oc6ccc(C#N)c(Cl)c6)C5(C)C)cn4)CC3)no2)C(C)C)cc1` [Example 818, N-((1r,3r)-3-(3-chloro-4-cyanophenoxy)-2,2,4,4-tetramethylcyclobutyl)-6-(4-(3-(5-((S)-1-((2S, 4R)-4-hydroxy-2-(((S)-1-(4-(4-methylthiazol-5-yl)phenyl)ethyl)carbamoyl)pyrrolidin-1-yl)-3-methyl-1-oxobutan-2-yl)isoxazol-3-yl)propyl)piperazin-1-yl) nicotinamide] as the molecule, how does the DC50 [3] read?
Answer: > 501 nM

Question: What about the Dmax [4] of the same molecule?
Answer: < 25%

Question: With `Cc1ncoc1-c1ccc(CNC(=O)[C@@H]2C[C@@H](O)CN2C(=O)[C@@H](NC(=O)CCCOc2ccc(-c3ccc(C(=O)N[C@H]4C(C)(C)[C@H](Oc5ccc(C#N)c(Cl)c5)C4(C)C)cc3)cc2)C(C)(C)C)cc1` [Example 180] as the molecule, how does the Dmax [5] read?
Answer: > 71%

Question: And the DC50 [6]?
Answer: < 50 nM
